Measured values published in ChEMBL document CHEMBL5579878, “Allosteric Activation of Protein Phosphatase 5 with Small Molecules” (J Med Chem, 2024).
The source made the active and inactive calls. No cut-off for these calls is given here.

Key:
HCT-116 = experiment: Antitumor activity against human HCT-116 cells xenografted in BALB/c nude mouse assessed as decrease in AT13387-induced HSP27 protein expression in tumor at 30 to 60 mg/kg, ip administered every other day for 14 days by Western blot analysis; assay type: functional, organism-based; conditions: dose 30-60 mg/kg, time 14.0 day
[1] = Toxicity in BALB/c nude mouse xenografted with human HCT-116 cells assessed as body weight loss at 30 to 60 mg/kg, ip administered every other day for 14 days in presence of AT13387; assay type: organism-based; conditions: in vivo, 336 h, dose 30-60 mg/kg, time 14 day
[2] = target: T1, Serine/threonine-protein phosphatase 5 (Homo sapiens) (UniProt P53041); experiment: Binding affinity to human PP5 extracted from Escherichia coli BL21 using CDC37 as substrate assessed as increase in dephosphorylation of p-CDC37 at S13 residue at 25 uM by Western blot analysis; conditions: filed as activator, time 0.5-2 hrs, TDE = time-dependent effect
T1 sequence (whole entry): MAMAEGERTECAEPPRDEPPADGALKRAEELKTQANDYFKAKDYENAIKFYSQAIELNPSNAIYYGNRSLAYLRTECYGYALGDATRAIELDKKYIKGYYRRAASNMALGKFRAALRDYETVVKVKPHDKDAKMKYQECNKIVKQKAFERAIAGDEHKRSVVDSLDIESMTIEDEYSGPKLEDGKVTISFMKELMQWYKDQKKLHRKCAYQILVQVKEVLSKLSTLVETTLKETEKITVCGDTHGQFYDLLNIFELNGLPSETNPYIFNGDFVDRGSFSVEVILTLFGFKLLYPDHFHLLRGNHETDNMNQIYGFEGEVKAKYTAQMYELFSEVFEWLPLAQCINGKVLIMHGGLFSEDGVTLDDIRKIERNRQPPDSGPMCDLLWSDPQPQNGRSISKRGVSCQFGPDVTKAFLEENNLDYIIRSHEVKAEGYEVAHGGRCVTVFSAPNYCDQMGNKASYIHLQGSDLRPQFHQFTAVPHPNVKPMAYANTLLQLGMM

[3] = target: T2, Low molecular weight phosphotyrosine protein phosphatase (Homo sapiens) (UniProt P24666); experiment: Inhibition of LMPTP-A (unknown origin) using DiFMUP as substrate at 0.01 to 1000 uM; conditions: dose 0.01-1000 µM
T2 sequence (whole entry): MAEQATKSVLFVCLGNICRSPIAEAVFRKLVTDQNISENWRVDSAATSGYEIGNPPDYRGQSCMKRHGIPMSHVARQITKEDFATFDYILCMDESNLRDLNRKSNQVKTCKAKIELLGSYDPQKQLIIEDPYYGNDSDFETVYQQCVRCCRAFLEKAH

N=c1oc2cc(F)cc(F)c2cc1C(N)=S
Activity (HCT-116): Active | Activity [1]: Non-Toxic | Activity [2]: Tde | inhibition [3]: inactive
